The results in this text go back to ChEMBL document CHEMBL1151320, “Isolation and characterization of novel endogenous digitalis-like factors in the ovary of the giant toad, Bufo marinus” (J Nat Prod, 1998).

This assay in a line: Inhibition of dog kidney Sodium/potassium-transporting ATPase by ELISA. Also on record: species or system Canis lupus familiaris. Background: An ELISA detects its analyte on a solid surface through an enzyme-linked reagent.
The term IC50 denotes the concentration that inhibits the measured activity by half. A low value points to greater potency in that assay. In turn, `C[C@]12C[C@@H](O)[C@H]3[C@@H](CC[C@]4(O)C[C@@H](OC(=O)CCCCCCCCCCCO)CC[C@]34CO)[C@@]1(O)CC[C@@H]2c1ccc(=O)oc1` showed a concentration for half-maximal inhibition (IC50) of 0.12 µM.
To `C[C@]12C[C@@H](O)[C@H]3[C@@H](CC[C@]4(O)C[C@@H](OC(=O)CCCCC/C=C\CCCCCCO)CC[C@]34CO)[C@@]1(O)CC[C@@H]2c1ccc(=O)oc1` belongs 0.1 µM; to `C[C@]12C[C@@H](O)[C@H]3[C@@H](CC[C@]4(O)C[C@@H](OC(=O)CCCCCCCCCCCCCO)CC[C@]34CO)[C@@]1(O)CC[C@@H]2c1ccc(=O)oc1`, 0.1 µM; to `C[C@]12C[C@@H](O)[C@H]3[C@@H](CC[C@]4(O)C[C@@H](O)CC[C@]34CO)[C@@]1(O)CC[C@@H]2c1ccc(=O)oc1`, 0.12 µM.
